Test: Oral bioavailability of jet-milled v. unmilled Na salt
Format: in vivo
Conditions: jet-milled crystals (mean particle size about 3 to 5 microns) compared with unmilled (about 20 to 25 microns); orally administered formulations
Description: The Na salt has been jet-milled to provide crystals with a mean particle size of about 3 to 5 microns (v. about 20 to 25 microns for unmilled material) for use in orally administered formulations.

## O=C(NCc1ccc(F)cc1)c1nc(N2CCCCS2(=O)=O)c2cccnc2c1[O-].[Na+] [Na salt, Sodium salt of 5-(1,1-Dioxido-1,2-thiazinan-2-yl)-N-(4-fluorobenzyl)-8-hydroxy-1,6-naphthyridine-7-carboxamide]
  oral bioavailability: improved oral bioavailability over the unmilled salt

Source: patent US6921759B2, “Aza- and polyaza-naphthalenyl carboxamides useful as HIV integrase inhibitors” (Merck & Co., Inc., priority 2000, dated 2005)
